According to patent US9693556B2, “Herbicidal pyridazinone derivatives” (SYNGENTA LIMITED, priority 2011, dated 2017):

How the values were obtained:
Format in all cases: in vivo
[1] = system: Ipomoea hederacea (IPOHE); assay: Pre-emergence herbicidal glasshouse test on Ipomoea hederacea; conditions: pre-emergence; 1000 g/h; evaluated after 13 days
Procedure, shortened: (§1)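 Plants sprayed 1 day (pre-emergence) or 8 days (post-emergence) after sowing with compound at 1000 g/h in acetone/water 50:50 with 0.5% Tween 20; glasshouse 24/16° C, 14 h light, 65% humidity. Damage assessed after 13 days, scored 1–5 (5 = 80-100%, 1 = 0-19%).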

Setaria faberi (SETFA) [2] = assay: Pre-emergence herbicidal glasshouse test on Setaria faberi; conditions: pre-emergence; 1000 g/h; evaluated after 13 days
Procedure, shortened: as §1

[3] = system: Amaranthus retoflexus (AMARE); assay: Pre-emergence herbicidal glasshouse test on Amaranthus retoflexus; conditions: pre-emergence; 1000 g/h; evaluated after 13 days
Procedure, shortened: as §1

[4] = system: Ipomoea hederacea (IPOHE); assay: Post-emergence herbicidal glasshouse test on Ipomoea hederacea; conditions: post-emergence; 1000 g/h; evaluated after 13 days
Procedure, shortened: as §1

[5] = system: Echinochloa crus-galli (ECHCG); assay: Post-emergence herbicidal glasshouse test on Echinochloa crus-galli; conditions: post-emergence; 1000 g/h; evaluated after 13 days
Procedure, shortened: as §1

Solanum nigrum (SOLNI) [6] = assay: Post-emergence herbicidal glasshouse test on Solanum nigrum; conditions: post-emergence; 1000 g/h; evaluated after 13 days
Procedure, shortened: as §1

Solanum nigrum (SOLNI) [7] = assay: Pre-emergence herbicidal glasshouse test on Solanum nigrum; conditions: pre-emergence; 1000 g/h; evaluated after 13 days
Procedure, shortened: as §1

[8] = system: Alopecurus myosuroides (ALOMY); assay: Pre-emergence herbicidal glasshouse test on Alopecurus myosuroides; conditions: pre-emergence; 1000 g/h; evaluated after 13 days
Procedure, shortened: as §1

[9] = system: Echinochloa crus-galli (ECHCG); assay: Pre-emergence herbicidal glasshouse test on Echinochloa crus-galli; conditions: pre-emergence; 1000 g/h; evaluated after 13 days
Procedure, shortened: as §1

[10] = system: Alopecurus myosuroides (ALOMY); assay: Post-emergence herbicidal glasshouse test on Alopecurus myosuroides; conditions: post-emergence; 1000 g/h; evaluated after 13 days
Procedure, shortened: as §1

Setaria faberi (SETFA) [11] = assay: Post-emergence herbicidal glasshouse test on Setaria faberi; conditions: post-emergence; 1000 g/h; evaluated after 13 days
Procedure, shortened: as §1

[12] = system: Amaranthus retoflexus (AMARE); assay: Post-emergence herbicidal glasshouse test on Amaranthus retoflexus; conditions: post-emergence; 1000 g/h; evaluated after 13 days
Procedure, shortened: as §1

Compound	PRE Application IPOHE herbicidal damage (five point scale) [1]	PRE Application SETFA herbicidal damage (five point scale) (Setaria faberi (SETFA) [2])	PRE Application AMARE herbicidal damage (five point scale) [3]	POST Application IPOHE herbicidal damage (five point scale) [4]	POST Application ECHCG herbicidal damage (five point scale) [5]	POST Application SOLNI herbicidal damage (five point scale) (Solanum nigrum (SOLNI) [6])	PRE Application SOLNI herbicidal damage (five point scale) (Solanum nigrum (SOLNI) [7])	PRE Application ALOMY herbicidal damage (five point scale) [8]	PRE Application ECHCG herbicidal damage (five point scale) [9]	POST Application ALOMY herbicidal damage (five point scale) [10]	POST Application SETFA herbicidal damage (five point scale) (Setaria faberi (SETFA) [11])	POST Application AMARE herbicidal damage (five point scale) [12]
Cn1ncc(-n2ccc(-c3ccc(C(F)(F)F)cc3)cc2=O)c(O)c1=O [Compound 1.023]	1 (1=0-19% damage)	4 (4=60-79% damage)	5 (5=80-100% damage)	1 (1=0-19% damage)	1 (1=0-19% damage)	2 (2=20-39% damage)	1 (1=0-19% damage)	2 (2=20-39% damage)	1 (1=0-19% damage)	2 (2=20-39% damage)	4 (4=60-79% damage)	3 (3=40-59% damage)
Cn1ncc(-n2ccc(C(F)(F)F)c(-c3cncnc3)c2=O)c(O)c1=O [Compound 1.024]	4 (4=60-79% damage)	1 (1=0-19% damage)	5 (5=80-100% damage)	4 (4=60-79% damage)	2 (2=20-39% damage)	5 (5=80-100% damage)	1 (1=0-19% damage)	1 (1=0-19% damage)	2 (2=20-39% damage)	1 (1=0-19% damage)	3 (3=40-59% damage)	5 (5=80-100% damage)
Cn1ncc(-n2cc(N3CCOCC3)c(C(F)(F)F)cc2=O)c(O)c1=O [Compound 1.025]	1 (1=0-19% damage)	1 (1=0-19% damage)	1 (1=0-19% damage)	2 (2=20-39% damage)	1 (1=0-19% damage)	4 (4=60-79% damage)	1 (1=0-19% damage)	1 (1=0-19% damage)	1 (1=0-19% damage)	1 (1=0-19% damage)	1 (1=0-19% damage)	2 (2=20-39% damage)
Cn1ncc(-n2ccc(C(F)(F)F)c(N3CCOCC3)c2=O)c(O)c1=O [Compound 1.026]	5 (5=80-100% damage)	5 (5=80-100% damage)	5 (5=80-100% damage)	5 (5=80-100% damage)	5 (5=80-100% damage)	5 (5=80-100% damage)	5 (5=80-100% damage)	5 (5=80-100% damage)	5 (5=80-100% damage)	5 (5=80-100% damage)	5 (5=80-100% damage)	5 (5=80-100% damage)
CSc1ccn(-c2cnn(C)c(=O)c2O)c(=O)c1 [Compound 1.027]	1 (1=0-19% damage)	3 (3=40-59% damage)	5 (5=80-100% damage)	5 (5=80-100% damage)	5 (5=80-100% damage)	5 (5=80-100% damage)	4 (4=60-79% damage)	1 (1=0-19% damage)	5 (5=80-100% damage)	1 (1=0-19% damage)	5 (5=80-100% damage)	5 (5=80-100% damage)
Cn1ncc(-c2ccc(C(F)(F)F)cc2S(C)(=O)=O)c(O)c1=O [Compound 1.028, 4-hydroxy-2-methyl-5-[2-methylsulfonyl-4-(trifluoromethyl)phenyl]pyridazin-3-one]	5 (5=80-100% damage)	5 (5=80-100% damage)	5 (5=80-100% damage)	5 (5=80-100% damage)	5 (5=80-100% damage)	5 (5=80-100% damage)	5 (5=80-100% damage)	5 (5=80-100% damage)	5 (5=80-100% damage)	5 (5=80-100% damage)	5 (5=80-100% damage)	5 (5=80-100% damage)
Cn1ncc(-c2ccc(C(F)(F)F)cc2[S+](C)[O-])c(O)c1=O (stereo not drawn) [Compound 1.029]	5 (5=80-100% damage)	5 (5=80-100% damage)	5 (5=80-100% damage)	5 (5=80-100% damage)	5 (5=80-100% damage)	5 (5=80-100% damage)	5 (5=80-100% damage)	5 (5=80-100% damage)	5 (5=80-100% damage)	5 (5=80-100% damage)	5 (5=80-100% damage)	5 (5=80-100% damage)
Cn1ncc(-c2ccc(S(C)(=O)=O)c3c2COC3)c(O)c1=O [Compound 1.030]	1 (1=0-19% damage)	1 (1=0-19% damage)	5 (5=80-100% damage)	3 (3=40-59% damage)	4 (4=60-79% damage)	5 (5=80-100% damage)	4 (4=60-79% damage)	1 (1=0-19% damage)	2 (2=20-39% damage)	1 (1=0-19% damage)	2 (2=20-39% damage)	5 (5=80-100% damage)
Cc1cc(-c2cnn(C)c(=O)c2O)c(C)c2c1S(=O)(=O)CCC21OCCO1 [Compound 1.031]	1 (1=0-19% damage)	4 (4=60-79% damage)	5 (5=80-100% damage)	5 (5=80-100% damage)	5 (5=80-100% damage)	5 (5=80-100% damage)	2 (2=20-39% damage)	1 (1=0-19% damage)	5 (5=80-100% damage)	2 (2=20-39% damage)	5 (5=80-100% damage)	5 (5=80-100% damage)
